Source: patent US12084680B2, “Methods for efficient derivation of human motor neurons from diverse spinal regions” (Wisconsin Alumni Research Foundation, priority 2016, dated 2024)

Legend:
Type in all cases: cell-based, human
H9 hESCs [1] = experiment: Induction of NKX6.1+/PAX6+/OLIG2+ motor neuron progenitors from cervical neuromesoderm (flow cytometry, immunocytochemistry); conditions: RA 1 μM for 2 days without PM or SHH, day 6
Description: To begin, we sequentially differentiated H9 hESCs in E6 media for 1 day, and FGF8b (200 ng/mL) for 1 day, and FGF8b and CHIR (3 μM) for 2 days to generate cervical neuromesoderm (FIGS. 5A-5B). Then, we screened the effects of CHIR, PM, and SHH treatment on NKX6.1^+/PAX6^+/OLIG2^+ motor neuron progenitor induction while transitioning to media containing 1 μM RA (FIGS. 5A-5D). Prior to the addition of RA, NKX6.1 was expressed in the cervical neuromesodermal state at day 4 (80±18% NKX6.1^+; data not shown), likely due to the CHIR-induced Wnt/β-catenin signaling (FIGS. 4A-4H). Transitioning the neuromesodermal progenitors to RA-containing media for 2 days induced HOXB4^+/HOXC6^+/HOXC9^−/HOXD10^−/PAX6^+ cervical neuroectoderm in all conditions (FIGS. 5B-5C), as expected. However, without co-activation of SHH signaling by PM or SHH, NKX6.1 expression was quickly lost by day 6 (97±1% PAX6^+, 17±3% NKX6.1^+) (FIG. 5C). […] To bolster this claim, we also analyzed the abundance of full-length GLI3 versus its truncated repressor form by western blot. […] Thus, Wnt/β-catenin signaling is necessary to induce ventral identity, but its continuous activation during OLIG2 induction by SHH signaling is detrimental to motor neuron differentiation, possibly due to activation of the GLI3 repressor.
Next, we tested conditions where CHIR was removed after transitioning to media containing RA (1 μM), PM (2 μM), and SHH (2 μg/mL) (FIGS. 5A-5C).
Since NKX6.1 is a pre-requisite to OLIG2 expression, we hypothesized that the Wnt/β-catenin signaling-dependent NKX6.1 expression levels may still be too low for efficient OLIG2^+ motor neuron progenitor induction. Therefore, the concentration of CHIR was boosted to 6 or 9 μM for 6 h immediately prior to transitioning to E6 medium containing RA, PM, and SHH without CHIR (FIG. 5A). The 9 μM CHIR boost followed by a transition to media containing 1 μM RA, 2 μM PM, and 2 μg/mL SHH yielded optimal motor neuron progenitor cultures with highly uniform NKX6.1, OLIG2, and PAX6 expression (96±1%, 85±9%, and 97±2%, respectively) (FIGS. 5C-5D).
(§1) hESCs were dissociated with accutase (Thermo Fisher Scientific) and reseeded at 1×10^5 cells/cm2 in E8 medium containing 10 μM ROCK inhibitor (Y27632; R&D Systems) on 6-well polystyrene tissue culture plates coated with 100 μg/mL poly-L-ornithine (PLO; Sigma) and 8 μg/well VTN-NC. The timelines and relevant growth factors/small molecules for all differentiation procedures are described in detail in the Results section and its accompanying figures. Cells were differentiated for various amounts of time in E6 medium containing the same insulin concentration as E8 medium as described above with varying combinations of soluble factors (product information and concentration ranges are found in Table 2). For neuromesodermal induction and HOX propagation, cells were sequentially cultured with FGF8b, CHIR99021 (CHIR), GDF11, and dorsomorphin (DM) as previously described. Briefly, to initiate the neuromesodermal state, cells were changed to E6 medium followed by addition of FGF8b (200 ng/ml) 24 h later. To generate cervical neuromesodermal progenitors, cells were washed with PBS, treated with accutase, and re-seeded in E6 medium containing 200 ng/ml FGF8b, 3 μM CHIR, and 10 μM Y27632 on VTN-NC-coated plates at a density of 1.5×10^5 cells/cm^2 for 48 h. To generate thoracic neuromesodermal progenitors, cells were passaged again after 72 h of CHIR treatment and re-seeded at different densities as described in the text.
(§2) Thoracic identity was reached after an additional 24 h. Then, to reach the lumbosacral level, cells were given 30 ng/ml GDF11 and 1 μM DM for an additional 48 h. For neuroectoderm induction and generation of OLIG2^+ progenitors, FGF8b was removed at the designated time points and the concentration of CHIR was increased for 6 h as described in the text, followed by a transition to media containing RA, PM, and SHH for a period of 48 h. […]

H9 hESCs [2] = experiment: NKX6.1 induction in neurally differentiating H9 hESCs after 24 h treatment (flow cytometry, RT-PCR, day 3)
Description: (§3) NKX6.1 is the earliest expressed marker in the motor neuron development cascade in vivo, so we examined its expression in response to Wnt/β-catenin, RA, and SHH signaling during hPSC motor neuron differentiation. H9 hESCs were differentiated in E6 medium for 2 days to initiate neural fate acquisition34 and then treated with combinations of RA, purmorphamine (PM, a small molecule agonist of SHH signaling), and CHIR for 24 h (FIG. 4A). […] Using the H9 ishcat2 line, we observed that CHIR-mediated induction of NKX6.1 was β-catenin-dependent, as the optimal 3 days of shRNA-mediated CTNNB1 knockdown upstream of CHIR treatment was required to maximally reduce NKX6.1 induction to 44±1% (FIG. 4E). The correlation between NKX6.1 knockdown and days of doxycycline treatment was presumably due to the time delay for shRNA synthesis and subsequent gene knockdown in Tet-on systems. […] Exogenously added WNT3A (200 ng/mL) could also induce NKX6.1 expression (60±14%) (FIG. 4G), providing further evidence for the involvement of Wnt/β-catenin signaling in this process. In contrast, simultaneous treatment with CHIR and BMP4 (200 ng/mL), a dorsal patterning factor, reduced the expression of NKX6.1 from 91±1% to 68±2% (FIG. 4H).
as §1
Thoracic identity was reached after an additional 24 h. Then, to reach the lumbosacral level, cells were given 30 ng/ml GDF11 and 1 μM DM for an additional 48 h. For neuroectoderm induction and generation of OLIG2^+ progenitors, FGF8b was removed at the designated time points and the concentration of CHIR was increased for 6 h as described in the text, followed by a transition to media containing RA, PM, and SHH for a period of 48 h. For differentiation of the OLIG2^+ progenitors to motor neurons, cells were subcultured by en bloc passage using a cell scraper, reseeded at a 1:200 ratio in Matrigel-coated 8-well chamber slides, and differentiated for 14 days in E6 medium containing 1 μM RA, 100 nM PM, and 100 ng/mL SHH, with media exchange every 3 days (10 μM Y27632 was included during the en bloc passaging step and removed after the first media exchange). For differentiation of lumbar cultures, 1 μM DM was included in all steps. For the myoblast co-culture experiments, OLIG2^+ cultures were en bloc passaged, frozen in E6 medium containing 10% DMSO, shipped to a different location, and thawed 1:10 in 6-well plates under the same conditions as described in FIG. 5. To facilitate neuronal maturation prior to myoblast co-culture, 5 μM DAPT (Tocris) was added from days 8-14 post-thaw. […]

H9 ishcat2 hESC line = experiment: Doxycycline-inducible shRNA knockdown of β-catenin (CTNNB1) during motor neuron differentiation; conditions: doxycycline 2 μg/mL
Description: In the ventral neural tube, SHH signaling generates OLIG2^+ motor neuron progenitors that subsequently mature into post-mitotic ISL1^+ and/or HB9^+ motor neurons. To probe the role of Wnt/β-catenin signaling during this process in vitro, we utilized the H9 ishcat2 hESC line, which harbors a doxycycline-inducible shRNA against CTNNB1.
Similarly, we induced β-catenin knockdown while differentiating the hESCs into motor neurons via E6 neural induction with RA (1 μM), purmorphamine (PM, a small molecule agonist of sonic hedgehog signaling; 100 nM), and neurotrophic factor treatment, as previously described (FIG. 3A).
as §3
hESCs were maintained on Matrigel (BD Biosciences) in E8 medium but with 10-fold lower insulin concentration (2 mg/L). Cell lines used in this study were H9 hESCs (passage 25-45) and H9 ishcat2 hESCs (passage 35-45). […]

H9 hESCs [3] = experiment: Differentiation of cervical OLIG2+ progenitors to post-mitotic motor neurons (immunocytochemistry, flow cytometry); conditions: 20 total days of differentiation, SHH, or SAG 2 μM instead of SHH
From the text: Having optimized the efficiency of OLIG2 induction at diverse spinal cord regions, next region-specific post-mitotic motor neurons were generated. Cervical OLIG2^+ motor neuron progenitors were en bloc passaged and gradually differentiated to ISL1^+ motor neurons over a 14-day period (FIGS. 7A-7B). […] The extensive co-labeling of ISL1^+ cells with SMI32-reactive non-phosphorylated neurofilament heavy chain is indicative of motor neuron identity. Widespread HB9/βIII-tubulin motor neuron expression was also observed throughout the cultures (FIG. 7C). Since spinal motor neurons in vivo are observed to be both ISL1^+, ISL1^+/HB9^+, and HB9^+ but are all SMI32 reactive, flow cytometry of the SMI32^+ cells is proposed to best represent the total percentage of motor neurons in each culture. Moreover, the use of SAG (2 μM), a small molecule Smoothened agonist45, instead of SHH yielded similar efficiencies (72±4% SMI32^+, 63±13% ISL1^+, and 65±15% HB9^+) (FIG. 7C). High efficiencies were also observed for thoracic cultures, whereas lumbar cultures saw a ˜10% decrease in efficiency (FIG. 7C). For all regions, ISL1^+ motor neurons predominantly co-labeled with FOXP1 (70-80% in cervical motor neurons and 40-60% in thoracic and lumbar motor neurons) versus LHX3 markers (20-30% in cervical and thoracic cultures and 15-20% in lumbar cultures) (FIG. 7C). […] These trends agree with the observed distribution of columnar motor neuron phenotype in the cervical, thoracic and lumbar spinal cord in vivo, and it is consistent with our prior observations of motor neuron populations derived using the deterministic HOX patterning protocol.
as §2

## CC1=C(/C=C/C(C)=C/C=C/C(C)=C/C(=O)O)C(C)(C)CCC1 [RA, Retinoic acid]
H9 hESCs [1]
  NKX6.1+ cells: 17±3%
  PAX6+ cells: 97±1%

## c1ccc2c(Oc3nc(Nc4ccc(N5CCOCC5)cc4)c4ncn(C5CCCCC5)c4n3)cccc2c1 [PM, Purmorphamine]
H9 hESCs [2]; combined RA 1 μM and PM 1 μM, no CHIR
  NKX6.1 induction within 24 h: did not induce NKX6.1

## C[C@H]1c2cccc(O)c2C(=O)C2=C(O)[C@]3(O)C(=O)C(C(N)=O)=C(O)[C@@H](N(C)C)[C@@H]3[C@@H](O)[C@@H]21 [Doxycycline]
H9 ishcat2 hESC line; day 3
  reduction of CTNNB1 expression (qPCR relative to RPS18): 87%
H9 ishcat2 hESC line; β-catenin knockdown, day 16
  NKX6.1 expression (flow cytometry): 2±1%

## CC1=C2C[C@H]3[C@@H](CC=C4C[C@@H](O)CC[C@@]43C)[C@@H]2CC[C@]12O[C@@H]1C[C@H](C)CN[C@H]1[C@H]2C [Cyclopamine]
H9 hESCs [2]; CHIR 6 μM plus Cyclopamine 5 μM, 24 h
  NKX6.1 expression (flow cytometry): did not diminish NKX6.1 expression

## CNC1CCC(N(Cc2cccc(-c3ccncc3)c2)C(=O)c2sc3ccccc3c2Cl)CC1 (centres unmarked) [SAG]
H9 hESCs [3]
  HB9+ cells: 65±15%
  ISL1+ cells: 63±13%
  SMI32+ cells: 72±4%

B1: BMP4: a dorsal patterning factor (protein, UniProt P12644 293-408, looked up)
Bone morphogenetic protein 4: SPKHHSQRARKKNKNCRRHSLYVDFSDVGWNDWIVAPPGYQAFYCHGDCPFPLADHLNSTNHAIVQTLVNSVNSSIPKACCVPTELSAISMLYLDEYDKVVLKNYQEMVVEGCGCR
H9 hESCs [2]; simultaneous CHIR 4 μM and BMP4 200 ng/mL, day 3
  NKX6.1 expression (flow cytometry): 68±2%

B2: WNT3A: soluble WNT3A, Wnt polypeptide ligand activating Wnt/β-catenin signaling (protein, UniProt P56704 19-352, looked up)
Protein Wnt-3a: SYPIWWSLAVGPQYSSLGSQPILCASIPGLVPKQLRFCRNYVEIMPSVAEGIKIGIQECQHQFRGRRWNCTTVHDSLAIFGPVLDKATRESAFVHAIASAGVAFAVTRSCAEGTAAICGCSSRHQGSPGKGWKWGGCSEDIEFGGMVSREFADARENRPDARSAMNRHNNEAGRQAIASHMHLKCKCHGLSGSCEVKTCWWSQPDFRAIGDFLKDKYDSASEMVVEKHRESRGWVETLRPRYTYFKVPTERDLVYYEASPNFCEPNPETGSFGTRDRTCNVSSHGIDGCDLLCCGRGHNARAERRREKCRCVFHWCCYVSCQECTRVYDVHTCK
H9 hESCs [2]; WNT3A 200 ng/mL, day 3
  NKX6.1 expression (flow cytometry): 60±14%
